{
  "source": "patent US7615533B2",
  "about": "“TPO peptide compounds for treatment of anemia” (Janssen Pharmaceutica N.V., priority 2004, dated 2009)",
  "origin": "cited, not measured here",
  "system": "rhesus monkeys exposed to 5 Gy total body irradiation",
  "conditions": "5 Gy total body irradiation (300-kV x-rays); cited from earlier work",
  "data": [
    {"substance": "human recombinant TPO: human recombinant thrombopoietin, glycoprotein; comparator in the reporter assay and cited in the background", "values": [
      {"measurement": "reticulocyte regeneration initiated earlier than in placebo-treated animals", "result": 10, "unit": "days"}
    ]}
  ]
}
